Measurements taken from ChEMBL document CHEMBL6071207, “In Vivo-Active Soluble Epoxide Hydrolase-Targeting PROTACs with Improved Potency and Stability” (ACS Med Chem Lett, 2024).
Activity calls are given as the source filed them. The rule behind the calls is not given here.

Legend:
HepG2 = test: Cytotoxicity against human HepG2 cells assessed as cell viability at 1 uM incubated for 24 hrs by MTT assay; conditions: HepG2, 24 h, read-out: Activity
[1] = molecular target: T1, Bifunctional epoxide hydrolase 2 (Mus musculus, UniProt P34914); test: Inhibition of mouse recombinant sEH using fluorogenic substrate
T1 sequence (P34914 whole entry): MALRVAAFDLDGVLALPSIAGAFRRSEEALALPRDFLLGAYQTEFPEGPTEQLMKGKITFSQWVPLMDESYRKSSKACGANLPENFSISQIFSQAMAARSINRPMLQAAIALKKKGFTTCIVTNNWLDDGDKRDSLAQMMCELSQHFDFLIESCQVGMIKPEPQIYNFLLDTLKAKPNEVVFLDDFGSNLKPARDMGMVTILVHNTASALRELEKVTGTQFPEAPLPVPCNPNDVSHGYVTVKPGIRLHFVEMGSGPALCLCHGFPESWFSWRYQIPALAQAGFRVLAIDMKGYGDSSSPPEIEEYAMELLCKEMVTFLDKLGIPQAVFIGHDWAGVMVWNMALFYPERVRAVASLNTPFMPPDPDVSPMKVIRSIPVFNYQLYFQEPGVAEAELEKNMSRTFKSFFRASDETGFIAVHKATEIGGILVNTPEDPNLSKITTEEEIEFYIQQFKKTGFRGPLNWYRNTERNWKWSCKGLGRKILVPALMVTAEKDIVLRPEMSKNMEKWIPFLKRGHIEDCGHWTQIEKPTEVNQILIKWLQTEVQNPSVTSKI

[2] = Metabolic stability in mouse liver microsome assessed as intrinsic clearance incubated for 5 to 45 mins in presence of NADPH by UPLC-MS/MS analysis; type: ADME; conditions: liver microsomes, time 5-45 min, read-out: CLH
[3] = Chemical stability of compound in cell culture medium assessed as half life measured for 24 hrs by LC-MS analysis; type: physicochemical
[4] = Metabolic stability in mouse liver microsome assessed as parent compound remaining incubated for 5 to 45 mins in absence of NADPH by UPLC-MS/MS analysis; type: ADME; conditions: microsomes, time 5-45 min
[5] = Metabolic stability in mouse liver microsome assessed as half life incubated for 5 to 45 mins in presence of NADPH by UPLC-MS/MS analysis; type: ADME; conditions: liver microsomes, time 5-45 min
[6] = AUC (0 to infinity) in male CD-1 mouse at 10 mg/kg, ip measured up to 24 hrs by LC-MS/MS analysis; type: ADME, organism-based; conditions: in vivo
[7] = Cmax in male CD-1 mouse at 10 mg/kg, ip measured up to 24 hrs by LC-MS/MS analysis; type: ADME, organism-based; conditions: in vivo
[8] = MRT (0 to infinity) in male CD-1 mouse at 10 mg/kg, ip measured up to 24 hrs by LC-MS/MS analysis; type: ADME, organism-based; conditions: in vivo
[9] = Tmax in male CD-1 mouse at 10 mg/kg, ip measured up to 24 hrs by LC-MS/MS analysis; type: ADME, organism-based; conditions: in vivo
[10] = Half life in male CD-1 mouse at 10 mg/kg, ip measured up to 24 hrs by LC-MS/MS analysis; type: ADME, organism-based; conditions: in vivo
[11] = molecular target: T2, Eukaryotic translation initiation factor 2-alpha kinase 3 (Homo sapiens) (UniProt Q9NZJ5); test: Inhibition of PERK phosphorylation in HEK293T cells at 100 to 1000 nM pretreated with compound for 12 hrs followed by thapsigargin addition and measured after 24 hrs by immunoblotting analysis; type: cell-based; conditions: dose 100-1000 nM, time 36.0 hrs
T2 sequence (whole entry): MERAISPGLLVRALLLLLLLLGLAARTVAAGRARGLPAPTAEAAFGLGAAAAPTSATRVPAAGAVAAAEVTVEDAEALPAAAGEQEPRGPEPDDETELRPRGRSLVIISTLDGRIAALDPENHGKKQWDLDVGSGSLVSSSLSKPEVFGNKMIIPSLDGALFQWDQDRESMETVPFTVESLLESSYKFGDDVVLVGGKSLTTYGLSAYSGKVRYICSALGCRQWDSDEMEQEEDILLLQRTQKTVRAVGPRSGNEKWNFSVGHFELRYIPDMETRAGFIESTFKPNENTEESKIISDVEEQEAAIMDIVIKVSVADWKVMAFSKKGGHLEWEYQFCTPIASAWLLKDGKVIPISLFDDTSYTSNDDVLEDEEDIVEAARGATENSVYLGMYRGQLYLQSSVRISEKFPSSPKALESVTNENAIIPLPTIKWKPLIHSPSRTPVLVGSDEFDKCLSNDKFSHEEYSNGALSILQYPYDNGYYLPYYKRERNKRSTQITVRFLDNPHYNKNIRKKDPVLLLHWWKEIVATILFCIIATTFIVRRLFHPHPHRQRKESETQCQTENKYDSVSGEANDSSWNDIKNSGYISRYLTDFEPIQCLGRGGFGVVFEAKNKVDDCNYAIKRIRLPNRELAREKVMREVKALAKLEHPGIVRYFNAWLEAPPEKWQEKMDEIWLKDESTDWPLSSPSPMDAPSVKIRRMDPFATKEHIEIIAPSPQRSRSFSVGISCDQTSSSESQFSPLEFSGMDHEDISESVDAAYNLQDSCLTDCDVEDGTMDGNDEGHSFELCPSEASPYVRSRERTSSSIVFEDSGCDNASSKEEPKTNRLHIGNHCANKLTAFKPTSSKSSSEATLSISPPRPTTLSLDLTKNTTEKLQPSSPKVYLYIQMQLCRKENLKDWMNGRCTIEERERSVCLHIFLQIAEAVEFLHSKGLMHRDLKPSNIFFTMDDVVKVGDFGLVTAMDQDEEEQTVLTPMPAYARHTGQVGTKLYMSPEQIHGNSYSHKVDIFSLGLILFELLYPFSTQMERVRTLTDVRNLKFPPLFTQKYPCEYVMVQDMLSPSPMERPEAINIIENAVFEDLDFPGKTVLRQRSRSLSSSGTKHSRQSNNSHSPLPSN

[12] = molecular target: Eukaryotic translation initiation factor 2 subunit 1 (Homo sapiens) (UniProt P05198); test: Inhibition of eIF2alpha phosphorylation in HEK293T cells at 100 to 1000 nM pretreated with compound for 12 hrs followed by thapsigargin addition and measured after 24 hrs by immunoblotting analysis; type: cell-based; conditions: dose 100-1000 nM, time 36.0 hrs
HEK293T = test: Inhibition of IRE1alpha phosphorylation in HEK293T cells at 100 to 1000 nM pretreated with compound for 12 hrs followed by thapsigargin addition and measured after 24 hrs by immunoblotting analysis; type: cell-based; conditions: Homo sapiens, dose 100-1000 nM, time 36.0 hrs
HEK-293T [13] = test: Induction of apoptosis in HEK293T cells assessed as reduction in thapsigargin-induced cell death pretreated with compound for 12 hrs followed by thapsigargin addition and measured after 24 hrs by propidium iodide staining based analysis; type: functional; conditions: Homo sapiens, time 36.0 hrs
[14] = molecular target: T3, Protein cereblon/Bifunctional epoxide hydrolase 2 (Mus musculus) (UniProt P34914+Q8C7D2); test: In-vivo PROTAC activity at sEH/CRBN in Male C57BL/6J mouse assessed as reduction in sEH level in BAT at 12 mg/kg, ip measured after 24 hrs by immunoblotting analysis; type: functional, organism-based
[15] = molecular target: T3, Protein cereblon/Bifunctional epoxide hydrolase 2 (Mus musculus); test: In-vivo PROTAC activity at sEH/CRBN in Male C57BL/6J mouse assessed as reduction in sEH level in liver at 12 mg/kg, ip measured after 24 hrs by immunoblotting analysis; type: functional, organism-based
HEK-293T [16] = test: Induction of apoptosis in HEK293T cells assessed as chromatin condensation by measuring improvement in cell survival pretreated with compound for 12 hrs followed by thapsigargin addition and measured after 24 hrs by Hoechst33258 staining based analysis; type: functional; conditions: Homo sapiens, time 36.0 hrs
[17] = Chemical stability of compound in cell culture medium assessed as parent compound remaining measured for 24 hrs by LC-MS analysis; type: physicochemical; conditions: read-out: Stability

T3 sequence (Q8C7D2 whole entry, looked up, one chain of several): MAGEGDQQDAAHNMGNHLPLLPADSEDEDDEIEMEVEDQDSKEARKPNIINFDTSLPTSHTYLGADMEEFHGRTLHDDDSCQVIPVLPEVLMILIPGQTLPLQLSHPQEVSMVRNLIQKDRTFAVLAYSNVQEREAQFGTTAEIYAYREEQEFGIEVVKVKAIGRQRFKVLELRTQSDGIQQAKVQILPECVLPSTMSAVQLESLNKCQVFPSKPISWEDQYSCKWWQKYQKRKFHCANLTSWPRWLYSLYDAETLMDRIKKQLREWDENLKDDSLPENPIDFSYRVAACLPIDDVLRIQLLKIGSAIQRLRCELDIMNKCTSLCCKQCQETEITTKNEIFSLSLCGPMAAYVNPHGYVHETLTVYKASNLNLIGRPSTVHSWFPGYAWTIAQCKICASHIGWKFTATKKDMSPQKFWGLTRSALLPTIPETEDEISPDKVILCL
Eukaryotic translation initiation factor 2 subunit 1 (Homo sapiens), sequence (P05198 whole entry): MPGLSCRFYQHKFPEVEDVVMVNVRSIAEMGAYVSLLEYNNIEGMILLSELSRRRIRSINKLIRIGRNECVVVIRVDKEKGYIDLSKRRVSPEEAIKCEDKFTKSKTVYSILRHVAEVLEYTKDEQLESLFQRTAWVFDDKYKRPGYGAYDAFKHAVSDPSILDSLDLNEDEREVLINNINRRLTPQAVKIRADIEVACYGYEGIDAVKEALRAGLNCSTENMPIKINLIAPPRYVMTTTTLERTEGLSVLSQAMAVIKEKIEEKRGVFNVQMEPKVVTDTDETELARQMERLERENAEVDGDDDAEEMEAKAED

O=C1CCC(N2C(=O)c3cccc(N4CCN(C(=O)CCCCCCCCNC(=O)c5ccc(O[C@H]6CC[C@H](NC(=O)Nc7ccc(OC(F)(F)F)cc7)CC6)cc5)CC4)c3C2=O)C(=O)N1 (some centres not stated)
viability at 1 µM (HepG2): -47%
IC50 [1]: 0.9 nM

O=C1CCC(N2C(=O)c3cc(F)c(N4CCN(C(=O)CCCCCCCCNC(=O)c5ccc(O[C@H]6CC[C@H](NC(=O)Nc7ccc(OC(F)(F)F)cc7)CC6)cc5)CC4)cc3C2=O)C(=O)N1 (some centres not stated)
viability at 1 µM (HepG2): -6%
IC50 [1]: 2.2 nM

O=C1CCC(N2C(=O)c3ccc(N4CCN(C(=O)CCCCCCCCNC(=O)c5ccc(O[C@H]6CC[C@H](NC(=O)Nc7ccc(OC(F)(F)F)cc7)CC6)cc5)CC4)cc3C2=O)C(=O)N1 (some centres not stated)
CLint scaled [2]: 170 mL/min/kg
half-life [3]: > 24 h
Stability [4]: > 99%
IC50 [1]: 9.9 nM
half-life [5]: 0.517 h

O=C1CCC(N2C(=O)c3ccc(N4CCN(CC5CCN(C(=O)CCCCCCCCC(=O)N6CCC(NC(=O)Nc7ccc(OC(F)(F)F)cc7)CC6)CC5)CC4)cc3C2=O)C(=O)N1 (configuration not stated)
AUC(0-inf) [6]: 61000 ng·h/mL
Cmax [7]: 3000 ng/mL
MRT inf [8]: 4 h
Tmax [9]: 0.33 h
IC50 [1]: 4.6 nM
half-life [10]: 5.8 h

O=C1CCC(N2C(=O)c3ccc(N4CCN(CC5CCN(C(=O)CCCCCCCCNC(=O)c6ccc(O[C@H]7CC[C@H](NC(=O)Nc8ccc(OC(F)(F)F)cc8)CC7)cc6)CC5)CC4)cc3C2=O)C(=O)N1 (some centres not stated)
inhibition [11]: Active
AUC(0-inf) [6]: 58000 ng·h/mL
inhibition [12]: Active
inhibition (HEK293T): Active
CLint scaled [2]: 43 mL/min/kg
Activity (HEK-293T [13]): Active
Activity [14]: Active
half-life [3]: > 24 h
Cmax [7]: 2800 ng/mL
MRT inf [8]: 17 h
viability at 1 µM (HepG2): -38%
Stability [4]: > 99%
Activity [15]: Active
Tmax [9]: 6.7 h
IC50 [1]: 210 nM
Activity (HEK-293T [16]): Active
half-life [5]: > 2 h
half-life [10]: 12 h

Cc1ncsc1-c1ccc(CNC(=O)[C@@H]2C[C@@H](O)CN2C(=O)[C@@H](NC(=O)CCOCCOCCOCCOCCC(=O)N2CCC(NC(=O)Nc3ccc(OC(F)(F)F)cc3)CC2)C(C)(C)C)cc1
IC50 [1]: 10 nM

O=C1CCC(N2Cc3cc(N4CCN(C(=O)CCCCCCCCNC(=O)c5ccc(O[C@H]6CC[C@H](NC(=O)Nc7ccc(OC(F)(F)F)cc7)CC6)cc5)CC4)ccc3C2=O)C(=O)N1 (some centres not stated)
viability at 1 µM (HepG2): 46%
remaining at 24 h [17]: 57%
IC50 [1]: 2.8 nM
